Data on four compounds can be found in patent publication US20090155279A1, “Pseudomonas Aeruginosa Outer Membrane Protein PA5158” (priority 2005, published 2009).

The subject of assay [1] is multidrug resistant Pseudomonas aeruginosa MSC06120 strains. Nature of the assay: Minimum inhibitory concentrations for MSC06120 strains. It is filed as cell-based. The settings on record: read-out: Minimum inhibitory concentration.
Assay [2] concerns Pseudomonas aeruginosa PA103 strains (ATCC29260). Description: Enhancement of anti-Pseudomonas aeruginosa activity of gentamicin (viable count). It is filed as cell-based. Particulars: gentamicin 0.125 μg/ml plus PBS (negative control group), 4 hours at 37° C. The procedure: Pseudomonas aeruginosa PA103 strains (ATCC29260) were shake cultured overnight at 37° C. in a Mueller-Hinton liquid medium and diluted to 1×10^5 cfu/ml with the same medium. Then, the strains were shake cultured again at 37° C. Two hours later, gentamicin was added at a concentration of 0.125 μg/ml. Likewise, to a negative control group, PBS was added at a concentration of 300 μg/ml. To antibody-added groups, rat anti-PA5158L1 IgG as the monoclonal antibody produced by the hybridoma deposited under the accession No. FERM-BP-10672, rat anti-PA5158L2 IgG as the IgG fraction purified from the KLH-conjugated peptide (SEQ ID No: 6)-immunized rat sera, and rat anti-PA5158 IgG as the IgG fraction purified from the PA5158 recombinant protein-immunized rat sera were added at each concentration of 300 μg/ml. Then, shake culture was carried out at 37° C. for 4 hours, and the number of viable strains in each group was measured.

Converted amounts (≈) assume the structure as drawn.

Take `NCC[C@H](O)C(=O)N[C@@H]1C[C@H](N)[C@@H](O[C@H]2O[C@H](CN)[C@@H](O)[C@H](O)[C@H]2O)[C@H](O)[C@H]1O[C@H]1O[C@H](CO)[C@@H](O)[C@H](N)[C@H]1O` [amikacin]: in assay [1], the MIC is 64 µg/mL (≈ 109 µM).
On to `O=C(O)c1cn(C2CC2)c2cc(N3CCNCC3)c(F)cc2c1=O` [ciprofloxacin], for which, in assay [1], the MIC was > 256 µg/mL.
For the compound `C[C@@H](O)[C@H]1C(=O)N2C(C(=O)O)=C(SCCN=CN)C[C@H]12` [imipenem], in assay [1], the MIC amounted to 32 µg/mL (≈ 107 µM).
As for gentamicin, the “Number of viable strains” value in assay [2] is 5.4×10^6 cfu/ml.
